According to the supplement of paper PMC11451515:

Test system: P12-Ichikawa
Test: cell viability relative to DMSO control; higher = less cytotoxic
Settings: 48 h
Method in brief: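 In 1536-well plates, 5 μl of leukemia cells were seeded per well: 500 cells/well for NOMO1 or SEM and 1000 cells/well for P12-Ichikawa. Each line had first been adapted for at least four passages in each medium. Library compounds in DMSO were pin-dosed at 11 threefold concentrations between 47 μM and 0.79 nM, and CellTiter-Glo One luminescence was read after 48 h at 37°C. Viability is a per-plate percentage relative to DMSO wells, with cell-free wells as background.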

[1] = HPLM + 10% dialyzed FBS, 0.000781 µM
[2] = HPLM + 10% dialyzed FBS, 0.00234 µM
[3] = HPLM + 10% dialyzed FBS, 0.00702 µM
[4] = HPLM + 10% dialyzed FBS, 0.0211 µM
[5] = HPLM + 10% dialyzed FBS, 0.0632 µM
[6] = HPLM + 10% dialyzed FBS, 0.19 µM
[7] = HPLM + 10% dialyzed FBS, 0.569 µM
[8] = HPLM + 10% dialyzed FBS, 1.71 µM
[9] = HPLM + 10% dialyzed FBS, 5.12 µM
[10] = HPLM + 10% dialyzed FBS, 15.4 µM
[11] = HPLM + 10% dialyzed FBS, 46.1 µM
[12] = RPMI 5 mM glucose + 10% FBS, 0.000781 µM
[13] = RPMI 5 mM glucose + 10% FBS, 0.00234 µM
[14] = RPMI 5 mM glucose + 10% FBS, 0.00702 µM
[15] = RPMI 5 mM glucose + 10% FBS, 0.0211 µM
[16] = RPMI 5 mM glucose + 10% FBS, 0.0632 µM
[17] = RPMI 5 mM glucose + 10% FBS, 0.19 µM
[18] = RPMI 5 mM glucose + 10% FBS, 0.569 µM
[19] = RPMI 5 mM glucose + 10% FBS, 1.71 µM
[20] = RPMI 5 mM glucose + 10% FBS, 5.12 µM
[21] = RPMI 5 mM glucose + 10% FBS, 15.4 µM
[22] = RPMI 5 mM glucose + 10% FBS, 46.1 µM
[23] = RPMI 5 mM glucose + 10% dialyzed FBS, 0.000781 µM
[24] = RPMI 5 mM glucose + 10% dialyzed FBS, 0.00234 µM
[25] = RPMI 5 mM glucose + 10% dialyzed FBS, 0.00702 µM
[26] = RPMI 5 mM glucose + 10% dialyzed FBS, 0.0211 µM
[27] = RPMI 5 mM glucose + 10% dialyzed FBS, 0.0632 µM
[28] = RPMI 5 mM glucose + 10% dialyzed FBS, 0.19 µM
[29] = RPMI 5 mM glucose + 10% dialyzed FBS, 0.569 µM
[30] = RPMI 5 mM glucose + 10% dialyzed FBS, 1.71 µM
[31] = RPMI 5 mM glucose + 10% dialyzed FBS, 5.12 µM
[32] = RPMI 5 mM glucose + 10% dialyzed FBS, 15.4 µM
[33] = RPMI 5 mM glucose + 10% dialyzed FBS, 46.1 µM

CCN(CC)C(=S)SSC(=S)N(CC)CC
cell viability [1]: 104%
cell viability [2]: 106%
cell viability [3]: 118%
cell viability [4]: 120%
cell viability [5]: 117%
cell viability [6]: 109%
cell viability [7]: 119%
cell viability [8]: 122%
cell viability [9]: 4.64%
cell viability [10]: 10.4%
cell viability [11]: 9.15%
cell viability [12]: 103%
cell viability [13]: 98.6%
cell viability [14]: 112%
cell viability [15]: 122%
cell viability [16]: 119%
cell viability [17]: 115%
cell viability [18]: 115%
cell viability [19]: 116%
cell viability [20]: 4.29%
cell viability [21]: 5.91%
cell viability [22]: 4.43%
cell viability [23]: 104%
cell viability [24]: 105%
cell viability [25]: 116%
cell viability [26]: 115%
cell viability [27]: 115%
cell viability [28]: 112%
cell viability [29]: 108%
cell viability [30]: 115%
cell viability [31]: 4%
cell viability [32]: 3.98%
cell viability [33]: 3.13%

C[C@@H](O)[C@@H]1[C@H]2[C@@H](C)\C(=C(/N2C1=O)C(=O)OCOC(=O)C(C)(C)C)SC3CN(C3)/C4=N/CCS4
cell viability [1]: 95.2%
cell viability [2]: 107%
cell viability [3]: 110%
cell viability [4]: 111%
cell viability [5]: 112%
cell viability [6]: 108%
cell viability [7]: 111%
cell viability [8]: 112%
cell viability [9]: 112%
cell viability [10]: 116%
cell viability [11]: 109%
cell viability [12]: 78.9%
cell viability [13]: 102%
cell viability [14]: 108%
cell viability [15]: 100%
cell viability [16]: 109%
cell viability [17]: 104%
cell viability [18]: 107%
cell viability [19]: 111%
cell viability [20]: 107%
cell viability [21]: 111%
cell viability [22]: 103%
cell viability [23]: 97.3%
cell viability [24]: 106%
cell viability [25]: 109%
cell viability [26]: 118%
cell viability [27]: 107%
cell viability [28]: 108%
cell viability [29]: 109%
cell viability [30]: 102%
cell viability [31]: 111%
cell viability [32]: 111%
cell viability [33]: 111%

COc1cc(C(C)=O)ccc1OCCCN1CCC(c2noc3cc(F)ccc23)CC1
cell viability [1]: 118%
cell viability [2]: 115%
cell viability [3]: 119%
cell viability [4]: 127%
cell viability [5]: 124%
cell viability [6]: 127%
cell viability [7]: 129%
cell viability [8]: 124%
cell viability [9]: 129%
cell viability [10]: 125%
cell viability [11]: 120%

O=C(/C=C/c1cccc([S+](=O)([O-])Nc2ccccc2)c1)NO
cell viability [1]: 115%
cell viability [2]: 115%
cell viability [3]: 125%
cell viability [4]: 119%
cell viability [5]: 129%
cell viability [6]: 129%
cell viability [7]: 126%
cell viability [8]: 101%
cell viability [9]: 20.8%
cell viability [10]: 7.58%
cell viability [11]: 7.44%

CCC1(c2ccc(N)cc2)CCC(=O)NC1=O (stereo not drawn)
cell viability [1]: 116%
cell viability [2]: 113%
cell viability [3]: 109%
cell viability [4]: 111%
cell viability [5]: 121%
cell viability [6]: 110%
cell viability [7]: 109%
cell viability [8]: 98.2%
cell viability [9]: 101%
cell viability [10]: 96.7%
cell viability [11]: 91.7%
cell viability [12]: 125%
cell viability [13]: 120%
cell viability [14]: 120%
cell viability [15]: 111%
cell viability [16]: 110%
cell viability [17]: 115%
cell viability [18]: 114%
cell viability [19]: 98.9%
cell viability [20]: 102%
cell viability [21]: 109%
cell viability [22]: 106%
cell viability [23]: 115%
cell viability [24]: 116%
cell viability [25]: 114%
cell viability [26]: 116%
cell viability [27]: 109%
cell viability [28]: 108%
cell viability [29]: 104%
cell viability [30]: 96.4%
cell viability [31]: 93.6%
cell viability [32]: 97.9%
cell viability [33]: 88%

O=C(/C=C/c1c(C(=O)[O-])[nH]c2cc(Cl)cc(Cl)c12)Nc1ccccc1
cell viability [1]: 106%
cell viability [2]: 111%
cell viability [3]: 105%
cell viability [4]: 103%
cell viability [5]: 116%
cell viability [6]: 114%
cell viability [7]: 115%
cell viability [8]: 116%
cell viability [9]: 113%
cell viability [10]: 111%
cell viability [11]: 109%
cell viability [12]: 98%
cell viability [13]: 105%
cell viability [14]: 107%
cell viability [15]: 106%
cell viability [16]: 108%
cell viability [17]: 110%
cell viability [18]: 112%
cell viability [19]: 120%
cell viability [20]: 104%
cell viability [21]: 107%
cell viability [22]: 106%
cell viability [23]: 103%
cell viability [24]: 99.5%
cell viability [25]: 107%
cell viability [26]: 110%
cell viability [27]: 107%
cell viability [28]: 108%
cell viability [29]: 103%
cell viability [30]: 107%
cell viability [31]: 66.2%
cell viability [32]: 108%
cell viability [33]: 113%

C\C1=C\N([C@H]2C[C@H](N=[N+]=[N-])[C@@H](CO)O2)C(=O)NC1=O
cell viability [1]: 101%
cell viability [2]: 108%
cell viability [3]: 107%
cell viability [4]: 120%
cell viability [5]: 111%
cell viability [6]: 111%
cell viability [7]: 111%
cell viability [8]: 120%
cell viability [9]: 115%
cell viability [10]: 23.2%
cell viability [11]: 15.1%
cell viability [12]: 99.8%
cell viability [13]: 120%
cell viability [14]: 122%
cell viability [15]: 111%
cell viability [16]: 116%
cell viability [17]: 116%
cell viability [18]: 121%
cell viability [19]: 121%
cell viability [20]: 119%
cell viability [21]: 34.4%
cell viability [22]: 25.3%
cell viability [23]: 97.1%
cell viability [24]: 109%
cell viability [25]: 112%
cell viability [26]: 101%
cell viability [27]: 113%
cell viability [28]: 111%
cell viability [29]: 116%
cell viability [30]: 110%
cell viability [31]: 103%
cell viability [32]: 79.9%
cell viability [33]: 62%

Oc1ccc(/C=C/c2cc(O)cc(O)c2)cc1
cell viability [1]: 111%
cell viability [2]: 110%
cell viability [3]: 110%
cell viability [4]: 114%
cell viability [5]: 105%
cell viability [6]: 111%
cell viability [7]: 115%
cell viability [8]: 103%
cell viability [9]: 105%
cell viability [10]: 108%
cell viability [11]: 41.4%
cell viability [12]: 116%
cell viability [13]: 118%
cell viability [14]: 116%
cell viability [15]: 118%
cell viability [16]: 118%
cell viability [17]: 112%
cell viability [18]: 117%
cell viability [19]: 106%
cell viability [20]: 111%
cell viability [21]: 101%
cell viability [22]: 58.6%
cell viability [23]: 108%
cell viability [24]: 111%
cell viability [25]: 111%
cell viability [26]: 112%
cell viability [27]: 113%
cell viability [28]: 116%
cell viability [29]: 121%
cell viability [30]: 108%
cell viability [31]: 103%
cell viability [32]: 84.5%
cell viability [33]: 36.9%

C[C@@]12O[C@@H](C[C@]1(O)CO)n1c3ccccc3c3c4c(c5c6ccccc6n2c5c31)CNC4=O
cell viability [1]: 115%
cell viability [2]: 112%
cell viability [3]: 109%
cell viability [4]: 112%
cell viability [5]: 110%
cell viability [6]: 101%
cell viability [7]: 81.3%
cell viability [8]: 29.9%
cell viability [9]: 23.2%
cell viability [10]: 15.2%
cell viability [11]: 12.9%
cell viability [12]: 116%
cell viability [13]: 117%
cell viability [14]: 121%
cell viability [15]: 110%
cell viability [16]: 111%
cell viability [17]: 98.2%
cell viability [18]: 70.5%
cell viability [19]: 26.1%
cell viability [20]: 26.6%
cell viability [21]: 15.6%
cell viability [22]: 8.24%
cell viability [23]: 115%
cell viability [24]: 109%
cell viability [25]: 115%
cell viability [26]: 103%
cell viability [27]: 97.6%
cell viability [28]: 104%
cell viability [29]: 62.3%
cell viability [30]: 33.8%
cell viability [31]: 24.3%
cell viability [32]: 9.03%
cell viability [33]: 8.99%
